# Laboratory results as given in publication PMC7316778 (Nature Communications, 2020).
# Several values for one entry are separate records, joined by “and”; a condition that tells them apart may be missing. Equal values may be shown once. Read-outs that look alike come from different tables or passages of the source.
# Legend:
# Assay in all cases: SelectScreen kinase assay
# CDK13/cyclin K = CDK13/cyclin K (Homo sapiens, UniProt Q14004); format: biochemical
# CLK3 = CLK3 (Homo sapiens, UniProt P49761)
# Description: (§1) Selectivity profiling assays were performed by the Invitrogen SelectScreen™ Services. […] The concentration of ATP was selected to be equal to the KM, unless indicated otherwise.
# DNA-PK = DNA-PK (Homo sapiens, UniProt P78527)
# Description: as §1
# EPHA5 = EPHA5 (Homo sapiens, UniProt P54756)
# Sequence of EPHA5 (P54756 25-1037): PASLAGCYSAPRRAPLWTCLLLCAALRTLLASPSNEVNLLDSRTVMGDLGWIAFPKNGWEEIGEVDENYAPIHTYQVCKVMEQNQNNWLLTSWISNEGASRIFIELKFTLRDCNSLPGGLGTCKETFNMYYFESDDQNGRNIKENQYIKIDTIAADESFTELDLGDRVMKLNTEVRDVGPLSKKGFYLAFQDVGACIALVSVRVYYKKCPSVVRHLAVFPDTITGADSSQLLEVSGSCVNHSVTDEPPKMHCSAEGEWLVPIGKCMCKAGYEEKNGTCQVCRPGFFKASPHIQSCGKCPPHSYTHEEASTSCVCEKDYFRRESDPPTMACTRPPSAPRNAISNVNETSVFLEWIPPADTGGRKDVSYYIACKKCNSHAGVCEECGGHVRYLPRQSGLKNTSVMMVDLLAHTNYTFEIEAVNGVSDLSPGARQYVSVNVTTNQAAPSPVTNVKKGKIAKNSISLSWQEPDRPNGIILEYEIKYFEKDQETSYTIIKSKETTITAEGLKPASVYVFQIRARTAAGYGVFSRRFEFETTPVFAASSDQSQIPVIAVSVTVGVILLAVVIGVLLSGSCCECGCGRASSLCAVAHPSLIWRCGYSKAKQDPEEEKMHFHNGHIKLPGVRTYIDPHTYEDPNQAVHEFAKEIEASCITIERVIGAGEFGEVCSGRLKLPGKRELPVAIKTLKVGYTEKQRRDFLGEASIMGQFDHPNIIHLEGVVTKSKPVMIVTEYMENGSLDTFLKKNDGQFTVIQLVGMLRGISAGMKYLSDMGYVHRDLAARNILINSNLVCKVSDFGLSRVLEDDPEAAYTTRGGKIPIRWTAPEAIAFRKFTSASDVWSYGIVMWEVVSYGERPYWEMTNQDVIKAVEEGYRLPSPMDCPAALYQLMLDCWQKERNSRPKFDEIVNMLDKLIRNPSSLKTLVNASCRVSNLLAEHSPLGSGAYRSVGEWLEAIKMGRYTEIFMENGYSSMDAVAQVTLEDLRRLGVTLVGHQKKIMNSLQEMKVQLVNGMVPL
# Description: as §1
# EPHB2 = target: T1, EPHB2 (Homo sapiens, UniProt P29323); settings: for Inhibition at 1 µM (%): EPHB2, ZLYTE, ATP Km app
# T1 sequence (P29323 19-1055): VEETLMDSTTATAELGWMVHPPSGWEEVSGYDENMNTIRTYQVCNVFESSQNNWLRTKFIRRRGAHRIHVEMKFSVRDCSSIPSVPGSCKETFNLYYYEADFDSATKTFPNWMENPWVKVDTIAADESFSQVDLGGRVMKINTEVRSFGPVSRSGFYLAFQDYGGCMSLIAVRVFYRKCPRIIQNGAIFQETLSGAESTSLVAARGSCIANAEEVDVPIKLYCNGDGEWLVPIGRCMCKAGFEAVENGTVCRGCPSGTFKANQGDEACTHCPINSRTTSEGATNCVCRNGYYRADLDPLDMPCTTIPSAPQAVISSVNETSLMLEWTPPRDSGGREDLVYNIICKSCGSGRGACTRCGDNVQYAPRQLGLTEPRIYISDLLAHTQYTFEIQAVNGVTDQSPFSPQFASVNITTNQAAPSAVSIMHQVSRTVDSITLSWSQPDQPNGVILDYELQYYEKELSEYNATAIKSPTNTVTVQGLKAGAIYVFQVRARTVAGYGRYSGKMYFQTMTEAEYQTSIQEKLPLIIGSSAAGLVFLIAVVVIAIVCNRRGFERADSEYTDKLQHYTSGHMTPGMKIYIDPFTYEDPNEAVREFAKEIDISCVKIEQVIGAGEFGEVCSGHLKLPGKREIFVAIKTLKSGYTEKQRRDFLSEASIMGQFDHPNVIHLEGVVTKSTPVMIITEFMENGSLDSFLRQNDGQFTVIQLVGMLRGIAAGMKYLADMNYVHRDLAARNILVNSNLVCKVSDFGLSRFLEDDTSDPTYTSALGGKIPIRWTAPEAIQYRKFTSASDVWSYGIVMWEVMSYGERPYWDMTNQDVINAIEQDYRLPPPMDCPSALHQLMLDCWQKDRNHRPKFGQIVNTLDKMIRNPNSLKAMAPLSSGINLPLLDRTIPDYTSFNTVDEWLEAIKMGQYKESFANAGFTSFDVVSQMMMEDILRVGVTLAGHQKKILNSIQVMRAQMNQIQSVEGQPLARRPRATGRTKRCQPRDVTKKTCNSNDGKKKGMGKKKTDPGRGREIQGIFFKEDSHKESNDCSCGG
# Description: as §1
# LYN B = LYN B (Homo sapiens, UniProt P07948); settings: for Inhibition at 1 µM (%): LYN B, ZLYTE, ATP Km app
# Description: as §1
# MAP2K5 (MEK5) = target: T2, MAP2K5 (MEK5) (Homo sapiens, UniProt Q13163)
# T2 sequence (Q13163 1-448): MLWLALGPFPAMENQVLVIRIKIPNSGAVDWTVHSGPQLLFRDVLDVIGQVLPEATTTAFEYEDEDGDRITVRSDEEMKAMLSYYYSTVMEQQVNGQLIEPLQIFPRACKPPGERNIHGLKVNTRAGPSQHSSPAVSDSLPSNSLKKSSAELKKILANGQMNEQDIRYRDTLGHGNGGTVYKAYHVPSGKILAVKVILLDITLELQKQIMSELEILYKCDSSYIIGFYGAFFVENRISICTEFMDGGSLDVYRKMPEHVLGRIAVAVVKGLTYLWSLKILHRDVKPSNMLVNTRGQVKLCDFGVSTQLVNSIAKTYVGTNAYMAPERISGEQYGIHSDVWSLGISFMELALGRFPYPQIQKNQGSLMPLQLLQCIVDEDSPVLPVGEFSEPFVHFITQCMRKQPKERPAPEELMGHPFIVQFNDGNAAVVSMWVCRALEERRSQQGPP
# Description: as §1
# MAPK12 (p38 gamma) = target: T3, MAPK12 (p38 gamma) (Homo sapiens, UniProt P53778)
# T3 sequence (P53778 1-367): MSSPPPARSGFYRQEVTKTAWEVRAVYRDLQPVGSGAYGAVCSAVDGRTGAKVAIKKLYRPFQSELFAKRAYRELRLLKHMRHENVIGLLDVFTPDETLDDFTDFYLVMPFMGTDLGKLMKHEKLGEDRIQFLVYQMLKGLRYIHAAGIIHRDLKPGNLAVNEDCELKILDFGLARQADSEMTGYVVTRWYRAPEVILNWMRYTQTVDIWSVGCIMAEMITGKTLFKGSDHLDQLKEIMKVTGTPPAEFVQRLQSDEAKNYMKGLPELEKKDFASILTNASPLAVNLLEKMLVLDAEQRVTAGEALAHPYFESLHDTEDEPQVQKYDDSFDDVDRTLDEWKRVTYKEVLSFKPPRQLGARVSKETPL
# Description: as §1
# [1] = target: PIK3CB/PIK3R1 (p110 beta/p85 alpha) (Homo sapiens, UniProt P42338)
# Sequence of PIK3CB/PIK3R1 (p110 beta/p85 alpha) (P42338 whole entry): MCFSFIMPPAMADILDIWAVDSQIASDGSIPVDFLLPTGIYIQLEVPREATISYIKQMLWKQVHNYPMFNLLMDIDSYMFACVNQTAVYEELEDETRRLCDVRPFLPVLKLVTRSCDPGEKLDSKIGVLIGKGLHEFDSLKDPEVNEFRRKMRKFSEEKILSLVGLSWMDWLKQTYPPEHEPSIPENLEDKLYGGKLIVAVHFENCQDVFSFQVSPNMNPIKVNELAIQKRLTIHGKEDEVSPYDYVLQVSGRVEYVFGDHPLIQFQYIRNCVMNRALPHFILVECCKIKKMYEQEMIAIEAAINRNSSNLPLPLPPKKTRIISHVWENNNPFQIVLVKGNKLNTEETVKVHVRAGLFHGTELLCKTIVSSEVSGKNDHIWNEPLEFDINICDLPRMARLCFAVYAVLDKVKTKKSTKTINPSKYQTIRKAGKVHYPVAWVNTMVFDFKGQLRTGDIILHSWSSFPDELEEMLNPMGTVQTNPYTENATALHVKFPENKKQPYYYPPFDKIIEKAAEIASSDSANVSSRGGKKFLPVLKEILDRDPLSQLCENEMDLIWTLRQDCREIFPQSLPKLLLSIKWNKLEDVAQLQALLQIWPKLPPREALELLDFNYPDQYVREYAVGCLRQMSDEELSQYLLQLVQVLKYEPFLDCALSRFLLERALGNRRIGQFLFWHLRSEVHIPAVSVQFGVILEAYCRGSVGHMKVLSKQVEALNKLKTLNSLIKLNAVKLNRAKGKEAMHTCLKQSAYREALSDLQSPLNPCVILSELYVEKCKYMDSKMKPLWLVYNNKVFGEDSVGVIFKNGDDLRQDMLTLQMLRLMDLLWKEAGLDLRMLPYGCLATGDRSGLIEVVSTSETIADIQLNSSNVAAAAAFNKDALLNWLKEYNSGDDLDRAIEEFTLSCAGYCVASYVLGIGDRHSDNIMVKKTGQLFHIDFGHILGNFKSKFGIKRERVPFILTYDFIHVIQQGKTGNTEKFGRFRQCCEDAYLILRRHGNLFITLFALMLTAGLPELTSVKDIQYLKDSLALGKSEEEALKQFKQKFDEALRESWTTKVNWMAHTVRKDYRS
# Sequence of PIK3CB/PIK3R1 (p110 beta/p85 alpha) (P27986 whole entry partner): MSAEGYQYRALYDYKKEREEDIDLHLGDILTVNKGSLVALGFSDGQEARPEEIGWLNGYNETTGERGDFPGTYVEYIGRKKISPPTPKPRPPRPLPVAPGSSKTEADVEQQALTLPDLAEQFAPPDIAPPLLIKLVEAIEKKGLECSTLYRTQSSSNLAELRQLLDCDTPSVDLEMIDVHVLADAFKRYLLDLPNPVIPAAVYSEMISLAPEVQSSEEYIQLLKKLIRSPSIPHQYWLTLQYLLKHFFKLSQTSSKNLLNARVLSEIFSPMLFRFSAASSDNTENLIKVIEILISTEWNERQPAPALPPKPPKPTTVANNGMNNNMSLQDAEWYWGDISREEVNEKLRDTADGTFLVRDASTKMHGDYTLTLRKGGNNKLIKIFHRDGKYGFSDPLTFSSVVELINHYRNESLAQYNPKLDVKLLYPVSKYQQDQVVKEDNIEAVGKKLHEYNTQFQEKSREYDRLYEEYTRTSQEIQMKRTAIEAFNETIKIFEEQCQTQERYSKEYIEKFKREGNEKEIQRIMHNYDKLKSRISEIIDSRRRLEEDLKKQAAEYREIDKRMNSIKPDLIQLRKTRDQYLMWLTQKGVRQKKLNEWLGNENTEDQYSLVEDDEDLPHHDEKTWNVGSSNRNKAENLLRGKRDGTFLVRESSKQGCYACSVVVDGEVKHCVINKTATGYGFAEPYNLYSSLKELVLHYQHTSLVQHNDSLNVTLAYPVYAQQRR
# Description: as §1
# PIP5K1B = PIP5K1B (Homo sapiens, UniProt O14986); settings: for Inhibition at 1 µM (%): PIP5K1B, Adapta, ATP 10
# Description: as §1
# STK24 (MST3) = STK24 (MST3) (Homo sapiens, UniProt Q9Y6E0)
# Description: as §1
# [2] = 1 h, 1 μM WEL028, 1 h preincubation
# Sequence of CDK13/cyclin K (Q14004 whole entry): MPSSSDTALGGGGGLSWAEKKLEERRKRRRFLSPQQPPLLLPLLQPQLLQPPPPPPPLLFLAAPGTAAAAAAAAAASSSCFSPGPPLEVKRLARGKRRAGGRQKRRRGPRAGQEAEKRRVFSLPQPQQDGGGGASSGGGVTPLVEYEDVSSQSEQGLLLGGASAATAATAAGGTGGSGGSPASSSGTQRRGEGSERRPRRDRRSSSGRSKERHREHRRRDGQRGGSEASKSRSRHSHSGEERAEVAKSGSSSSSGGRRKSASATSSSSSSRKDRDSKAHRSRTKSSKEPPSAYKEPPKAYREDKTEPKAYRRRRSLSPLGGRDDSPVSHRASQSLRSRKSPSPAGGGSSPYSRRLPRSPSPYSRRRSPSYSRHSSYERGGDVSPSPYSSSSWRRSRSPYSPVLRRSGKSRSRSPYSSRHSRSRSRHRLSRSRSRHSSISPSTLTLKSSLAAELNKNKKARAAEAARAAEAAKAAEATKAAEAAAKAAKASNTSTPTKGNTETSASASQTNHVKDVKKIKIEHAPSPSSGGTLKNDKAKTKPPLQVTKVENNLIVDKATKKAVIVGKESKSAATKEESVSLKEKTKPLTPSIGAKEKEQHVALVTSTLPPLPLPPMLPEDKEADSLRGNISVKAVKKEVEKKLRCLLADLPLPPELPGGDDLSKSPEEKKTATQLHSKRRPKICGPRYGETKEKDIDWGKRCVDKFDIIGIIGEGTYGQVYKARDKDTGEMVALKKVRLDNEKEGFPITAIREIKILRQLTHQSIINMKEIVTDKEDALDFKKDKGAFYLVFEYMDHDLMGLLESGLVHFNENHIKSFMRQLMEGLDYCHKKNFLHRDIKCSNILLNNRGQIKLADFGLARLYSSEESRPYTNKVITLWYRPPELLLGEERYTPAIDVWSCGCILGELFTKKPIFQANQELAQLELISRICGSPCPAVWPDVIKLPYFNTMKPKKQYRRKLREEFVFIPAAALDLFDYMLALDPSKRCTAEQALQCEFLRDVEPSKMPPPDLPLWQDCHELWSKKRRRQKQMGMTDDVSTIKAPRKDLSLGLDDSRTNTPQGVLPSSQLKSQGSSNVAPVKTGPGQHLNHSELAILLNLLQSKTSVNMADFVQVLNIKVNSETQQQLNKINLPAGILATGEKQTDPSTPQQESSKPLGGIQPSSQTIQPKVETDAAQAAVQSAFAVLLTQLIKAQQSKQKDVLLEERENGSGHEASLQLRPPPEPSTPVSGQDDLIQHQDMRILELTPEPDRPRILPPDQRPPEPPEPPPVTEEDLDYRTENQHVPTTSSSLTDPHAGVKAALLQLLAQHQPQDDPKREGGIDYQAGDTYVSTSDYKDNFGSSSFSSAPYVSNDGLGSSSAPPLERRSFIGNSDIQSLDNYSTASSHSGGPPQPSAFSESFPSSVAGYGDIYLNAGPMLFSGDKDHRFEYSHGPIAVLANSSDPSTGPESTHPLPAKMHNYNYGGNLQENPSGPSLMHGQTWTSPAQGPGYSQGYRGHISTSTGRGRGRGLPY
# Sequence of CDK13/cyclin K (O75909 whole entry partner): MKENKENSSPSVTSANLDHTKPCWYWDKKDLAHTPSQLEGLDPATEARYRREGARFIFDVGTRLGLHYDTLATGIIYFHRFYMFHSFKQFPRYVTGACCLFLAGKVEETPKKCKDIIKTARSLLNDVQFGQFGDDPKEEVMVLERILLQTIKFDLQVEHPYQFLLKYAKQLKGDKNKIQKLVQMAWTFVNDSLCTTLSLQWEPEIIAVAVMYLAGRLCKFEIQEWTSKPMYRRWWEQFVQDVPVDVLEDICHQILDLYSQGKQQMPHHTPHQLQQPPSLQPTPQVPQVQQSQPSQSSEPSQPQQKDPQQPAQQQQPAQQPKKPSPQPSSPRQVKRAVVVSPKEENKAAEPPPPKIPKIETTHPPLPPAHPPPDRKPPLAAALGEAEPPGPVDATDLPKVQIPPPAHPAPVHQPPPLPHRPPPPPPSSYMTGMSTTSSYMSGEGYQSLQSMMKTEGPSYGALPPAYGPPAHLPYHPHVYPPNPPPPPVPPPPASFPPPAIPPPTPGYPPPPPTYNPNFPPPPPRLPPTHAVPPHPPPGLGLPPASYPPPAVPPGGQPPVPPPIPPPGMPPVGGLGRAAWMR
smiles,measurement,setting,value
C#CCOc1ccc(Nc2ncc(Cl)c(Nc3ccccc3NC(=O)C=C)n2)c(OC)c1 [Compound 6],Inhibition (%),"CDK13/cyclin K; 1 μM WEL028, 1 h preincubation",-3%
same,Inhibition at 1 µM (%),"CDK13/cyclin K; CDK13/cyclin K, 1 µM, LanthaScreen Binding, listed as WEL028, 1 µM",-1% and -5%
same,inhibition at 1 µM,CLK3; [2],11%
same,Inhibition at 1 µM (%),"CLK3; CLK3, 1 µM, ZLYTE, ATP Km app",23%
same,inhibition at 1 µM,DNA-PK; [2],6%
same,Inhibition at 1 µM (%),"DNA-PK; DNA-PK, 1 µM, ZLYTE, ATP Km app, listed as WEL028, 1 µM",8%
same,inhibition at 1 µM,"DNA-PK; read-out: Inhibition at 1 µM (%), DNA-PK, 1 µM, ZLYTE, ATP Km app",4%
same,Inhibition (%),"EPHA5; 1 μM WEL028, 1 h preincubation",0%
same,Inhibition at 1 µM (%),"EPHA5; EPHA5, 1 µM, ZLYTE, ATP Km app, listed as WEL028, 1 µM",3% and -2%
same,Inhibition (%),"EPHB2; 1 μM WEL028, 1 h preincubation",4%
same,Inhibition at 1 µM (%),EPHB2,2%
same,Inhibition at 1 µM (%),"EPHB2; listed as WEL028, 1 µM",5%
same,inhibition at 1 µM,LYN B; [2],1%
same,Inhibition at 1 µM (%),LYN B,3%
same,Inhibition at 1 µM (%),"LYN B; listed as WEL028, 1 µM",0%
same,inhibition at 1 µM,MAP2K5 (MEK5); [2],53%
same,Inhibition at 1 µM (%),"MAP2K5 (MEK5); MAP2K5 (MEK5), 1 µM, LanthaScreen Binding, listed as WEL028, 1 µM",52%
same,inhibition at 1 µM,"MAP2K5 (MEK5); read-out: Inhibition at 1 µM (%), MAP2K5 (MEK5), 1 µM, LanthaScreen Binding",53%
same,inhibition at 1 µM,MAPK12 (p38 gamma); [2],10%
same,Inhibition at 1 µM (%),"MAPK12 (p38 gamma); MAPK12 (p38 gamma), 1 µM, ZLYTE, ATP Km app, listed as WEL028, 1 µM",7%
same,inhibition at 1 µM,"MAPK12 (p38 gamma); read-out: Inhibition at 1 µM (%), MAPK12 (p38 gamma), 1 µM, ZLYTE, ATP Km app",12%
same,inhibition at 1 µM,[1]; [2],-8%
same,Inhibition at 1 µM (%),"[1]; PIK3CB/PIK3R1 (p110 beta/p85 alpha), 1 µM, Adapta, ATP Km app, listed as WEL028, 1 µM",-10% and -7%
same,inhibition at 1 µM,PIP5K1B; [2],-11%
same,Inhibition at 1 µM (%),PIP5K1B,-13%
same,Inhibition at 1 µM (%),"PIP5K1B; listed as WEL028, 1 µM",-9%
same,Inhibition (%),"STK24 (MST3); 1 μM WEL028, 1 h preincubation",12%
same,Inhibition at 1 µM (%),"STK24 (MST3); 1 µM, ZLYTE, ATP Km app, listed as WEL028, 1 µM",15%
same,inhibition at 1 µM,"STK24 (MST3); read-out: Inhibition at 1 µM (%), 1 µM, ZLYTE, ATP Km app",9%
